Laboratory results: ChEMBL document CHEMBL1148666, “Inhibition of protein tyrosine phosphatase 1B by diterpenoids isolated from Acanthopanax koreanum” (Bioorg Med Chem Lett, 2006)

Target: T1, Tyrosine-protein phosphatase non-receptor type 1 (Homo sapiens, UniProt P18031)
T1 sequence (P18031 whole entry): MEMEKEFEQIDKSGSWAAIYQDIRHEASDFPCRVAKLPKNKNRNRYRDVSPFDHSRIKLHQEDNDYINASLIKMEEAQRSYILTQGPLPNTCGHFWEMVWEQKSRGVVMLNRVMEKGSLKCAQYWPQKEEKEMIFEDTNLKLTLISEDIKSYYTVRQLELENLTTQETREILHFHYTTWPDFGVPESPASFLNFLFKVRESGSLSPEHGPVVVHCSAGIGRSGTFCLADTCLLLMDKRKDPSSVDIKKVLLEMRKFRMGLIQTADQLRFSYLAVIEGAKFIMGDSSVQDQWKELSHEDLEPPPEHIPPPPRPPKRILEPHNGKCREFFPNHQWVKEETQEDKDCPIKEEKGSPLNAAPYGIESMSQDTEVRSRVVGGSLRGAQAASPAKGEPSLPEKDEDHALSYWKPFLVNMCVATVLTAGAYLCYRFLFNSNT
Assay: Inhibition of human recombinant PTP1B

IC50 [µM]	SMILES
> 30	C=C[C@]1(C)C=C2C(CC1)[C@]1(C)CCC[C@@](C)(C(=O)O)C1C[C@@H]2O (some centres undefined)
7.1	CC(C)CC(=O)OC[C@H]1C[C@@]23CCC4[C@@](C)(CCC[C@@]4(C)C(=O)O)C2CC[C@@H]1C3 (some centres undefined)
> 30	CC(C)CC(=O)OC[C@@]1(O)C[C@@]23CCC4[C@@](C)(CCC[C@@]4(C)C(=O)O)C2CC[C@@H]1C3 (some centres undefined)
> 30	C[C@@]12CCC[C@@](C)(C(=O)O)C1CC[C@@]13C[C@@H](CCC12)[C@](C)(O)C3 (some centres undefined)
4.5	CCCCCCCCCCCCCCCC(=O)C1=C(O)[C@@H](CO)OC1=O
23.5	C=C[C@@]1(C)CC=C2C(CCC3[C@](C)(C(=O)O)CCC[C@@]23C)C1 (some centres undefined) [ACANTHOIC ACID]
> 30	C=C[C@]1(C)CC[C@@]2(O)[C@@H](C1)C(=O)CC1[C@](C)(C(=O)O)CCC[C@]12C (some centres undefined) [ACANTHOKOREOIC ACID A]
> 30	C=C[C@@]1(C)CC=C2C(CCC3[C@](C)(CO)CCC[C@@]23C)C1 (some centres undefined) [ACANTHOL]
20.2	C=C1C[C@@]23CC[C@H]4[C@@](C)(CCC[C@@]4(C)C(=O)O)[C@@H]2CC[C@@H]1C3 [KAURENOIC ACID]
